For test [1], the target named is T1, Interleukin-2 (Homo sapiens, UniProt P60568). Put plainly: Binding affinity to L19-IL2 (unknown origin) by fluorescence polarization assay. Background: In fluorescence polarisation assays a small probe gives low polarisation when free and higher when bound to something large.
In the next test the target is Albumin (Homo sapiens, UniProt P02768). Nature of the test: Binding affinity to human serum albumin by fluorescence polarization assay.
A short description of test [2]: Binding affinity to AGP (unknown origin) by fluorescence polarization assay. On the set-up: species or system Homo sapiens.
Test [3] in a line: Inhibition of IL2/IL-2Ralpha (unknown origin) interaction. On the set-up: species or system Homo sapiens.
The target of another test is Tumor necrosis factor (Homo sapiens, UniProt P01375). Put plainly: Binding affinity to TNF (unknown origin).
Sequence of Tumor necrosis factor (P01375 whole entry): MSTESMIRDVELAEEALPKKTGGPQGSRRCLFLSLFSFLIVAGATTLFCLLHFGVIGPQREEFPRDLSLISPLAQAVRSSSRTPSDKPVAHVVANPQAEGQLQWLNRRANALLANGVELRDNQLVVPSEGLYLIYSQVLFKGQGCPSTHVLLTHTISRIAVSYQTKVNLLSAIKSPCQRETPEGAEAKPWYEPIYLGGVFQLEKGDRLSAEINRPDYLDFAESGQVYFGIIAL
Test [4] deals with T1, Interleukin-2. Nature of the test: Binding affinity to IL2 (unknown origin) preincubated for 15 mins followed by NARA1 addition and measured after 1 hr in presence of NARA1 by ELISA.
The target in test [5] is Interleukin-15 (Homo sapiens) (UniProt P40933). Put plainly: Binding affinity to IL-15 (unknown origin).
Sequence of Interleukin-15 (Homo sapiens) (P40933 whole entry): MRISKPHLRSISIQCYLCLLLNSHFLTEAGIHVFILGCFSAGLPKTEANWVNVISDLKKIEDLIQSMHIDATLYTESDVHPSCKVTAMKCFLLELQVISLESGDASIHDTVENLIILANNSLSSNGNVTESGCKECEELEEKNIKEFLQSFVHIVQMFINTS
Test [6] has as its target T1, Interleukin-2. Nature of the test: Binding affinity to IL2 (unknown origin) by SPR assay. (Surface plasmon resonance follows binding to a sensor surface in real time, without labels.)

The source made the active and inactive calls. No cut-off for these calls is given here.

This passage reports Kd, IC50 and Activity results from ChEMBL document CHEMBL4831555, “Identification and Validation of New Interleukin-2 Ligands Using DNA-Encoded Libraries” (J Med Chem, 2021).

Sequence of Albumin (P02768 whole entry): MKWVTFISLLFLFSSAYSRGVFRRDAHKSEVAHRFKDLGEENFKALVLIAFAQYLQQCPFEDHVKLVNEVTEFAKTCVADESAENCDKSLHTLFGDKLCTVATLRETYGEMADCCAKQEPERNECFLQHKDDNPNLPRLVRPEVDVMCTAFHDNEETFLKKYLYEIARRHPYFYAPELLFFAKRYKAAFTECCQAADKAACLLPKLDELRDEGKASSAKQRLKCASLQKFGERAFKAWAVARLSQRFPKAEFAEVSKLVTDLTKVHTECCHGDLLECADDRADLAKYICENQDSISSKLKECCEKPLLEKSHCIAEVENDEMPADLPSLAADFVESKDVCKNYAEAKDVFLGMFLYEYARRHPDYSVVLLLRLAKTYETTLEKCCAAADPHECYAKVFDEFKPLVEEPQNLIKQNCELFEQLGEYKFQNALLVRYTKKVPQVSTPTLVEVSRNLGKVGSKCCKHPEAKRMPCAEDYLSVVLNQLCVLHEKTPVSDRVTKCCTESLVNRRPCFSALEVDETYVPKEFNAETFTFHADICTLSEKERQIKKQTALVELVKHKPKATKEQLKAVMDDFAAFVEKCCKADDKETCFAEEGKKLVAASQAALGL
T1 sequence (P60568 whole entry): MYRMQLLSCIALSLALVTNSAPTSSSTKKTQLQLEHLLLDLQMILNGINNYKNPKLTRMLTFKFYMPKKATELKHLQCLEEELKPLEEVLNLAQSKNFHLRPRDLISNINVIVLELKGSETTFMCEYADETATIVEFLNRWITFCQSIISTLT

With `O=C(N[C@@H](Cc1ccc(O)c(I)c1)C(=O)O)c1cc2ccc(F)cc2[nH]1`, the Kd is 280 nM on Interleukin-2 [1] and 170 nM at Albumin.

In the case of `O=C(N[C@@H](Cc1ccc(O)c(I)c1)C(=O)O)c1cc2cccc(F)c2[nH]1`, the Kd came to 390 nM on Interleukin-2 [1] and 210 nM on Albumin.

`O=C(N[C@@H](Cc1cccc(I)c1)C(=O)O)c1cc2c(F)cccc2[nH]1`: the values for the Kd on Interleukin-2 [1] and on Albumin were 250 nM and 20 nM, respectively.

`O=C(N[C@@H](Cc1ccc2ccccc2c1)C(=O)O)c1cc2c(F)cccc2[nH]1`: the Kd was 750 nM on Interleukin-2 [1] and 30 nM at Albumin.

As to `N=C(N)NCCC[C@@H](NC(=O)[C@H](Cc1ccc(O)c(I)c1)NC(=O)c1cc2c(F)cccc2[nH]1)C(=O)O`, the Kd in test [2] was found to be 3000 nM; on Interleukin-2 [1] it was 870 nM; on Albumin, 9600 nM.

Consider `O=C(N[C@H](Cc1ccc(O)c(I)c1)C(=O)O)c1cc2c(F)cccc2[nH]1`, for which the Kd on Interleukin-2 [1] worked out at 210 nM; at Albumin, 220 nM.

For the compound `O=C(N[C@@H](Cc1ccc(O)c(Cl)c1)C(=O)O)c1cc2c(F)cccc2[nH]1`, the Kd at Interleukin-2 [1] was 590 nM; on Albumin, 580 nM.

As to `O=C(N[C@@H](Cc1ccc(I)cc1)C(=O)O)c1cc2c(F)cccc2[nH]1`, the Kd on Interleukin-2 [1] came out at 640 nM; on Albumin it was 70 nM.

Turning to `O=C(N[C@@H](Cc1ccc(O)cc1)C(=O)O)c1cc2c(F)cccc2[nH]1`, the Kd on Interleukin-2 [1] is 1400 nM; on Albumin, 1500 nM.

For the compound `O=C(N[C@@H](Cc1ccc(O)c(F)c1)C(=O)O)c1cc2c(F)cccc2[nH]1`, the dissociation constant (Kd) at Interleukin-2 [1] was 920 nM; on Albumin, 1700 nM.

Turning to `O=C(N[C@@H](Cc1ccc(O)c(I)c1)C(=O)O)c1c[nH]c2cccc(F)c12`, the Kd at Interleukin-2 [1] came to 510 nM; at Albumin it was 820 nM.

For `O=C(N[C@@H](Cc1ccc(O)c(Br)c1)C(=O)O)c1cc2c(F)cccc2[nH]1`, the figures for the Kd at Interleukin-2 [1] and on Albumin were 300 nM and 780 nM, respectively.

Consider `COc1ccc(C[C@H](NC(=O)c2cc3c(F)cccc3[nH]2)C(=O)O)cc1`, for which the results for the Kd at Interleukin-2 [1] and at Albumin were 1300 nM and 430 nM, respectively.

The compound `CC(C)C[C@@H](NC(=N)N)C(=O)NCC(=O)N1CCC(c2cc(-c3ccc(OCc4ccc(C(=O)O)o4)c(Cl)c3Cl)nn2C)CC1` yielded an IC50 in test [3] of 60 nM.

Take `O=C(N[C@@H](Cc1ccc(O)c([N+](=O)[O-])c1)C(=O)O)c1cc2c(F)cccc2[nH]1`: the Kd came to 720 nM at Interleukin-2 [1] and 310 nM at Albumin.

Consider `O=C(N[C@@H](Cc1ccc(O)c(I)c1)C(=O)O)c1cc2c(F)cccc2o1`, for which the Kd stood at 2200 nM on Interleukin-2 [1] and 1000 nM on Albumin.

With `O=C(N[C@@H](Cc1ccc(O)c(I)c1)C(=O)O)c1cc2cc(F)ccc2[nH]1`, the Kd at Interleukin-2 [1] was determined as 330 nM; on Albumin it was 270 nM.

Turning to `N=C(N)NCCC[C@H](NC(=O)[C@H](Cc1ccc(O)c(I)c1)NC(=O)c1cc2c(F)cccc2[nH]1)C(=O)O`, the Kd in test [2] was found to be 3400 nM; at Tumor necrosis factor it was 4400 nM; on Interleukin-2 [1] it was 340 nM; on Albumin, 2000 nM. Further, the IC50 at Interleukin-2 [4] stood at 3400 nM. For the same compound, the result in test [5] was inactive.

In the case of `O=C(N[C@@H](Cc1ccc(O)c(I)c1)C(=O)O)c1cc2ccccc2[nH]1`, the figures for the Kd on Interleukin-2 [1] and at Albumin were 420 nM and 390 nM, respectively.

Regarding `COC(=O)[C@H](Cc1ccc(C#Cc2ccccc2)cc1)NC(=O)C[C@@H]1CCCN(C(=N)N)C1`, the Kd was found to be 22000 nM on Interleukin-2 [6], 4900 nM in test [2], 1500 nM at Interleukin-2 [1] and 4000 nM at Albumin. Besides, the IC50 in test [3] was determined as 3000 nM.

`O=C(N[C@@H](Cc1ccc(O)c(I)c1)C(=O)O)c1cc2c(F)cccc2[nH]1`: the Kd on Tumor necrosis factor worked out at 5100 nM; at Interleukin-2 [1], 250 nM; on Albumin, 290 nM.

For `N=C(N)NCCC[C@H](NC(=O)[C@@H](Cc1ccc(O)c(I)c1)NC(=O)c1cc2c(F)cccc2[nH]1)C(=O)O`, the Kd in test [2] was above 10000 nM; on Interleukin-2 [1], 1200 nM; at Albumin, 3300 nM.

Take `N=C(N)NCCC[C@@H](NC(=O)[C@@H](Cc1ccc(O)c(I)c1)NC(=O)c1cc2c(F)cccc2[nH]1)C(=O)O`: the dissociation constant Kd is 4000 nM in test [2], 710 nM on Interleukin-2 [1] and 7200 nM at Albumin.

By Kd is commonly meant the constant that tells how readily two partners part at equilibrium. Broadly, the IC50 is the concentration that inhibits the measured activity by half.
